# Values of other authors as cited in patent US20100003364A1, “REDUCED-HANGOVER ALCOHOLIC BEVERAGE COMPRISING TURMERIC” (priority 2006, published 2010).
# Settings: biological activities listed for compounds from Curcuma longa L.
row,Compound,Activity
1,CC(C)=CC(=O)CC(C)c1ccc(C)cc1 (stereo not shown) [Ar-turmerone],snakebite
2,O=C(C=Cc1ccc(O)cc1)CC(=O)C=Cc1ccc(O)cc1 [Bisdemethoxy curcumin],antioxidant
3,COc1cc(/C=C/C(=O)CC(=O)/C=C/c2ccc([O-])c(OC)c2)ccc1[O-].[Na+].[Na+] [Sodium curcuminate],anti-inflammatory
4,Methylcurcumin,L. amazonensis
